Experimental findings from ChEMBL document CHEMBL3272309, “Potential central nervous system antitumor agents. Aziridinylbenzoquinones. 1” (J Med Chem, 1976) are described below.

For one data set, the system named is L1210. Nature of the data set: Antitumor activity against mouse L1210 cells allografted in mouse assessed as change in body weight at 12.5 mg/kg, ip qd administered from day 1 to 9 post ip tumor-implantation measured on day 5 relative to control. To be noted: route intraperitoneal. In kind it is functional.
For data set [1], the system named is Mus musculus. Nature of the data set: Toxicity in mouse allografted with mouse LLC cells at 4 mg/kg, ip qd administered from day 5 to 15 post sc tumor-implantation. It is filed as organism-based. Further details: dose 4 mg/kg. To be noted: in vivo.
Data set [2] has as its system P388. Nature of the data set: Antitumor activity against mouse P388 cells allografted in mouse assessed as change in body weight at 3.12 mg/kg, ip qd administered from day 1 to 9 post intracerebral tumor-implantation measured on day 5 relative to control. The conditions noted are these: route intraperitoneal. It is filed as functional.
Data set [3] concerns P388. Nature of the data set: Antitumor activity against mouse P388 cells allografted in mouse assessed as change in body weight at 0.39 mg/kg, ip qd administered from day 1 to 9 post intracerebral tumor-implantation measured on day 5 relative to control. It is filed as functional. To be noted: route intraperitoneal.
For data set [4], the system named is P388. As to the kind of experiment: Antitumor activity against mouse P388 cells allografted in mouse assessed as change in body weight at 1.56 mg/kg, ip qd administered from day 1 to 9 post intracerebral tumor-implantation measured on day 5 relative to control. In kind it is functional. To be noted: route intraperitoneal.
In data set [5] the test system is Mus musculus. As to the kind of experiment: Toxicity in mouse allografted with mouse ependymoblastoma cells at 8 mg/kg, ip qd administered from day 1 to 5 post intracerebral tumor-implantation. In kind it is organism-based. Further details: dose 8 mg/kg, route intraperitoneal. To be noted: in vivo.
The subject of a further data set is B16. Nature of the data set: Antitumor activity against mouse B16 cells allografted in mouse assessed as change in body weight at 0.78 mg/kg, ip qd administered from day 1 to 9 post ip tumor-implantation measured on day 5 relative to control. In kind it is functional. To be noted: route intraperitoneal.
A short description of data set [6]: Antitumor activity against mouse ependymoblastoma cells allografted in mouse assessed as mouse survival at 0.5 mg/kg, ip qd administered from day 1 to 5 post intracerebral tumor-implantation relative to control. In kind it is functional. To be noted: route intraperitoneal.
Data set [7] is described as follows: Antitumor activity against mouse ependymoblastoma cells allografted in mouse assessed as mouse survival at 2 mg/kg, ip qd administered from day 1 to 5 post intracerebral tumor-implantation relative to control. In kind it is functional. The conditions noted are these: route intraperitoneal.

Turning to `CCOC(=O)NC1=C(N2CC2)C(=O)C(NC(=O)OCC)=C(N2CC2)C1=O` [DIAZIQUONE], the Activity with L1210 is given as -5 g; in the data set with Mus musculus [1], “Toxic”; with P388 [2], -2.1 g; in the data set with P388 [3], -0.7 g; in the data set with P388 [4] it was -1.1 g; with Mus musculus [5] it was “Toxic”. For the same compound, the Activity with B16 is -2.2 g. Also, the T/C – broadly, the result in the treated group divided by that in the control group, in per cent – in data set [6] is given as 162%; in data set [7], 271%.
